# Experiments:
# [1] = Human serum stability assay (SDS-PAGE); type: in vitro ADME; details: 37 °C, 72 h
# Description: To the [^197m/gHg][Hg(Tetrathiol)]^2− (prepared as described above) or radiolabeling controls (DMSO instead of the ligand) was diluted in human serum (1:1 v/v dilution), and the solutions were incubated at 37 °C over 72 h. The metal-complex stabilities were monitored over 72 h using SDS-PAGE following our previously reported protocols (Randhawa et al. [2023]; Tosato et al. [2024]). At each time point, an aliquot (10 μL) of the reaction mixture was mixed with Laemmli sample buffer (10 μL) and was directly loaded onto the SDS-PAGE gel. The SDS-PAGE was run at ambient temperature and 150 V until the dye front reached the resolving gel (1 h). Following electrophoresis, the gel was scanned with the radio-TLC scanner to determine the percentage of intact complex. The same protocol was used with free [^197m/gHg]Hg^2+ and the ^197m/gHg^2+-complexes diluted in phosphate-buffered saline (PBS) (5 µL; 1:1 v/v dilution) to assess their electrophoretic mobility.
# [2] = L-Glutathione (GSH) competition assay; type: physicochemical; details: 37 °C, 72 h, 2.12 mM GSH
# Description: GSH competition assay procedures closely followed those previously developed by our group (Randhawa et al. [2023]). To the [^197m/gHg][Hg(Tetrathiol)]^2− (prepared as described above) or radiolabeling controls (DMSO instead of the ligand) was added to a 50 mM L-glutathione (GSH) solution (1:22 v/v GSH:reaction solution dilution), and the mixtures were incubated at 37 °C over 72 h. The final GSH concentration was chosen to mimic in vivo conditions within cells (2.12 mM) (Dickinson and Forman [2002]). The proportion of intact radiolabeled complex was monitored over the course of 72 h using iTLC-SG and L-glutathione (50 mM) as the mobile phase. Under these conditions, uncomplexed ^197m/gHg^2+ resulting from GSH transchelation traveled to the solvent front (Rf = 1) while intact [^197m/gHg][Hg(Tetrathiol)]^2− remained at the baseline (Rf = 0).
# [3] = Stable metal competition assay, biologically relevant metal cocktail; type: physicochemical; details: tenfold excess to chelator, 113 h, ambient temperature
# Description: (§1) To the [^197m/gHg][Hg(Tetrathiol)]^2− (prepared as described above) or radiolabeling controls (DMSO instead of the ligand) 10 µL of a 10 mM metal cocktail (solution of biologically relevant metals, ZnCl2, FeCl3, CuCl2, MgCl2 and CoCl2), 10 mM AuCl3 or 10 mM of HgCl2, in water was added. The final solution contained tenfold excess of stable metal to the chelators and 10^6-fold excess of the stable metal to ^197m/gHg in solution. The mixtures were incubated at RT over 113 h. The proportion of intact radiolabeled complex was monitored over the course of 113 h using iTLC-SG and DMSA solution (50 mM, pH 5) as the mobile phase. Under these conditions, uncomplexed ^197m/gHg^2+ resulting from stable metal transchelation traveled to the solvent front (Rf = 1) while intact [^197m/gHg][Hg(Tetrathiol)]^2− remained at the baseline (Rf = 0).
# [4] = Stable metal competition assay, AuCl3; type: physicochemical; details: tenfold excess to chelator, 113 h, ambient temperature
# Description: as §1
# [5] = Stable metal competition assay, HgCl2; type: physicochemical; details: tenfold excess HgCl2
# Description: as §1
# [6] = LogD7.4 shake-flask measurement (n-octanol/PBS); type: physicochemical; details: n-octanol/PBS pH 7.4, shake-flask
# Description: Aliquots of [^197m/gHg][Hg(Tetrathiol)]^2− (prepared as described above) (10 μL) were added to a biphasic mixture of n-octanol (700 μL) and phosphate buffered saline (PBS, 700 μL, pH 7.4). The mixture was vortexed for 2 min at ambient temperature and then separated via centrifugation (10 min, 3000 rpm). Aliquots of n-octanol (100 μL) and PBS (100 μL) were collected, and the activity in each portion was determined via gamma spectroscopy. LogD7.4 is defined as log10[(activity in n-octanol phase)/(activity in buffer phase)].
smiles,measurement,setting,value
O=C(CC[S-])OCC(COC(=O)CC[S-])(COC(=O)CC[S-])COC(=O)CC[S-].[Hg+2] [[^197m/gHg]Hg-Tetrathiol],intact complex in human serum,[1],86 ± 1%
same,stability when challenged against GSH,[2],no evidence of decomposition or transchelation
same,demetallation against mixture of biologically relevant metals,[3],no signs of demetallation
same,demetallation against AuCl3,[4],no signs of demetallation
same,intact complex in competition with HgCl2,[5]; 113 h,18 ± 10%
same,intact complex in competition with HgCl2,[5]; within 2 h,71 ± 10%
same,logD7.4,[6],0.35 ± 0.1
